In paper PMC3866251, “The Sodium/Proline Transporter PutP of Helicobacter pylori” (PLoS ONE, 2013):

Biological target: T1, HpPutP (Helicobacter pylori, UniProt B6JPE8)
T1 construct: gene putP; full-length, C-terminal 6His tag (FLAG-6His for Western blots), expressed in E. coli WG170 (PutP-A-), intact cells
Test: inhibition of […]-L-proline uptake into E. coli WG170 expressing HpPutP, Dixon plot
Type: cell-based

T1 sequence (B6JPE8 1-496): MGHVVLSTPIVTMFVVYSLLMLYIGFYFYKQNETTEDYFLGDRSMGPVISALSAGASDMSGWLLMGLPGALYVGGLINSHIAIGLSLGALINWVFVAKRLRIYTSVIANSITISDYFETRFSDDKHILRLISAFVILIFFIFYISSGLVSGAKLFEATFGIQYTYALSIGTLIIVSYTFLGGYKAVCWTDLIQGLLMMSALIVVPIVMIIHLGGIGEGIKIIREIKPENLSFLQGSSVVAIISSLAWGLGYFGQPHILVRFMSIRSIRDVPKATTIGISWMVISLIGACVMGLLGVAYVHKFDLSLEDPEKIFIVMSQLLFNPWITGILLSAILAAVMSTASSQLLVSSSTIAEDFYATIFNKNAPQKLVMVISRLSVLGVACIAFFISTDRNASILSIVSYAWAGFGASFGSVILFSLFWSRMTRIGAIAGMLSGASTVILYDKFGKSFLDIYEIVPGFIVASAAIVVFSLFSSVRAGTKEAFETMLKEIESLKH

| SMILES | Ki [µM] |
| --- | --- |
| O=C(O)C1C=CCN1 (racemic) [DHP, 3,4-dehydro-D,L-proline] | 5.7 ± 0.9 |
| O=C(O)[C@@H]1CCN1 [AZC, L-azetidine-2-carboxylic acid] | 44.2 ± 6.3 |
